Measurements published in ChEMBL document CHEMBL4421722, “Inhibitors of protein prenyltransferases” (2013).
The source made the active and inactive calls.

Columns and labels:
[1] = Inhibition of rat recombinant geranylgeranyltransferase type I expressed in Escherichia coli assessed as reduction in geranylgeranylation of RhoA incubated for 30 mins in presence of [3H]GGPP by scintillation counting assay relative to control
[2] = target: T1, Geranylgeranyl transferase type-2 (Homo sapiens, UniProt P53611+Q92696); test: Inhibition of RabGGTase (unknown origin) using YPTI as substrate protein and [3H]geranylgeranyl pyrophosphate incubated for 20 mins by scintillation counting assay; type: protein-complex assay
T1 sequence (P53611 whole entry): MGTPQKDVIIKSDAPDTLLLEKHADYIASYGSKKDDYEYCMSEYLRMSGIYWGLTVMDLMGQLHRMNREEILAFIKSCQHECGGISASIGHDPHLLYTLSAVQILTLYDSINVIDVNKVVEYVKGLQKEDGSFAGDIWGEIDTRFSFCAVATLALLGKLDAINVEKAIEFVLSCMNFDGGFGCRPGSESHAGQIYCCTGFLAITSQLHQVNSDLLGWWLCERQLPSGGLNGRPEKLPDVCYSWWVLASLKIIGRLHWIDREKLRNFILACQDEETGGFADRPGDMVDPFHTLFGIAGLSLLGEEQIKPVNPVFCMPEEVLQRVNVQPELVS
T1 sequence (Q92696 whole entry): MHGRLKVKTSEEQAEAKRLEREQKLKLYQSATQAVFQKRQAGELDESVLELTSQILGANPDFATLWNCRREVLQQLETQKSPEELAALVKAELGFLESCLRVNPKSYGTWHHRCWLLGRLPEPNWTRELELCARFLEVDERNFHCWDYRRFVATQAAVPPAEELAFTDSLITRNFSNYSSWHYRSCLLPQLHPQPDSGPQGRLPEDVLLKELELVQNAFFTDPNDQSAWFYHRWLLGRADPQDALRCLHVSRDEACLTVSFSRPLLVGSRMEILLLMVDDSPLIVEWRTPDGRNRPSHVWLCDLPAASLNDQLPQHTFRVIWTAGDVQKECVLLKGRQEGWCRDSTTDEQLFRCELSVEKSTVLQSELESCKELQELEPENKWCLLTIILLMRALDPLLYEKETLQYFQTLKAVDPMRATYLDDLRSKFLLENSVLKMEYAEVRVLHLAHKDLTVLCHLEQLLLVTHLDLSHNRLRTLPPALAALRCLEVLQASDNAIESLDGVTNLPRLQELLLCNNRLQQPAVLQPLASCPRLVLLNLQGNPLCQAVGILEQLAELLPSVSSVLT

[3] = target: Protein farnesyltransferase (Rattus norvegicus, UniProt Q02293+Q04631); test: Inhibition of rat recombinant FTase alpha/beta expressed in Escherichia coli using K-Ras4B as a substrate as and [3H]farnesyl pyrophosphate incubated for 30 mins by scintillation counting assay
[4] = target: T2, Geranylgeranyl transferase type-2 (Homo sapiens) (UniProt P53611+Q92696); test: Inhibition of RabGGTase in HEK293 cells assessed as reduction in geranylgeranylation of Rab5b protein at 20 uM incubated for 48 hrs by SDS-PAGE and immunoblot analysis; type: cell-based
[5] = target: T2, Geranylgeranyl transferase type-2 (Homo sapiens); test: Inhibition of RabGGTase in HEK293 cells assessed as reduction in geranylgeranylation of Rab5b protein at 5 to 20 uM incubated for 48 hrs by SDS-PAGE and immunoblot analysis; type: cell-based
[6] = system: HEK293; test: Inhibition of geranylgeranyltransferase type I in HEK293 cells expressing Myc-HA-tagged Rheb-WT assessed as effect on unprenylated Rap1 accumulation at 5 to 20 uM incubated for 48 hrs by SDS-PAGE and immunoblot analysis; type: cell-based; conditions: Homo sapiens
[7] = target: T3, Protein farnesyltransferase (Homo sapiens) (UniProt P49354+P49356); test: Inhibition of FTase in HEK293 cells assessed as reduction in H-ras farnesylation at […] 10 uM incubated for 48 hrs by SDS-PAGE and immunoblot analysis; type: cell-based
[8] = target: T2, Geranylgeranyl transferase type-2 (Homo sapiens); test: Inhibition of RabGGTase in HEK293 cells assessed as increase in Rab5b protein in soluble fraction at 5 to 20 uM incubated for 48 hrs by SDS-PAGE and immunoblot analysis; type: cell-based
[9] = target: T1, Geranylgeranyl transferase type-2; test: Competitive type inhibition of RabGGTase (unknown origin) using varying Rab7 as substrate protein and fixed [3H]geranylgeranyl pyrophosphate incubated for 20 mins by scintillation counting assay; type: protein-complex assay
[10] = target: T2, Geranylgeranyl transferase type-2 (Homo sapiens); test: Uncompetitive type inhibition of RabGGTase (unknown origin) using fixed Rab7 as substrate protein and varying [3H]geranylgeranyl pyrophosphate incubated for 20 mins by scintillation counting assay; type: protein-complex assay
[11] = system: Jurkat; test: Antiproliferative activity against human Jurkat cells assessed as inhibition of cell proliferation incubated for 72 hrs by CCK8 assay; type: functional, cell-based
[12] = system: MCF7; test: Antiproliferative activity against human MCF7 cells assessed as inhibition of cell proliferation incubated for 6 days by CCK8 assay; type: functional, cell-based
[13] = system: HEK293; test: Inhibition of geranylgeranyltransferase type I in HEK293 cells expressing Myc-HA-tagged Rheb-WT assessed as effect on unprenylated Rap1 accumulation at 2.5 uM incubated for 48 hrs by SDS-PAGE and immunoblot analysis; type: cell-based; conditions: Homo sapiens
[14] = target: T3, Protein farnesyltransferase (Homo sapiens); test: Inhibition of FTase in HEK293 cells assessed as reduction in H-ras farnesylation at 2.5 to 10 uM incubated for 48 hrs by SDS-PAGE and immunoblot analysis; type: cell-based
[15] = target: T2, Geranylgeranyl transferase type-2 (Homo sapiens); test: Inhibition of RabGGTase in HEK293 cells assessed as reduction in geranylgeranylation of Rab5b protein at 5 to 10 uM incubated for 48 hrs by SDS-PAGE and immunoblot analysis; type: cell-based
[16] = target: T2, Geranylgeranyl transferase type-2 (Homo sapiens); test: Inhibition of RabGGTase (unknown origin) at 100000 nM using YPTI as substrate protein and [3H]geranylgeranyl pyrophosphate incubated for 20 mins by scintillation counting assay; type: protein-complex assay
[17] = target: Protein farnesyltransferase (Rattus norvegicus) (UniProt Q04631+Q02293); test: Inhibition of rat recombinant FTase alpha/beta expressed in Escherichia coli at 100000 nM using K-Ras4B as a substrate as and [3H]farnesyl pyrophosphate incubated for 30 mins by scintillation counting assay
[18] = system: K562; test: Induction of cell cycle arrest in human K562 cells assessed as accumulation at G1 phase incubated for 48 hrs by flow cytometry; type: functional, cell-based
[19] = system: K562; test: Induction of cell cycle arrest in human K562 cells assessed as reduction in accumulation at S phase incubated for 48 hrs by flow cytometry; type: functional, cell-based
[20] = species: Mus musculus; test: Inhibition of geranylgeranyltransferase type I in mouse NIH/3T3 cells transfected with p21WAF1/CIP1 promoter-Luc assessed as induction of p21 CIP1/WAF1 expression by luciferase reporter gene assay; type: cell-based
[21] = system: PANC-1; test: Antitumor activity against human PANC1 cells xenografted in SCID mouse assessed as inhibition of tumor growth at 1.16 mg/kg, ip dosed six times per week and measured every 2 weeks; type: functional, organism-based
[22] = system: PANC-1; test: Antitumor activity against human PANC1 cells xenografted in SCID mouse assessed as inhibition of tumor growth at 1.16 mg/kg, ip dosed once time per week and measured every 2 weeks; type: functional, organism-based
[23] = Clearance in SCID mouse xenografted with human PANC1 cells at 1.16 mg/kg, ip dosed once or 6 times per week; type: ADME, organism-based; conditions: in vivo
[24] = system: PANC-1; test: Antitumor activity against human PANC1 cells xenografted in SCID mouse assessed as inhibition of tumor growth at 1.16 mg/kg, ip dosed 3 times per week and measured every 2 weeks up to day 14 to day 47; type: functional, organism-based
[25] = Toxicity in SCID mouse xenografted with human PANC1 cells assessed as effect on ALB level at 1.16 mg/kg, ip dosed 3 times per week and measured every 2 weeks up to day 14 to day 47; type: organism-based; conditions: in vivo, 336 h
[26] = Toxicity in SCID mouse xenografted with human PANC1 cells assessed as effect on ALT […] level at 1.16 mg/kg, ip dosed 3 times per week and measured every 2 weeks up to day 14 to day 47; type: organism-based; conditions: in vivo, 336 h
[27] = Toxicity in SCID mouse xenografted with human PANC1 cells assessed as effect on AST […] level at 1.16 mg/kg, ip dosed 3 times per week and measured every 2 weeks up to day 14 to day 47; type: organism-based; conditions: in vivo, 336 h
[28] = Toxicity in SCID mouse xenografted with human PANC1 cells assessed as effect on BUN level at 1.16 mg/kg, ip dosed 3 times per week and measured every 2 weeks up to day 14 to day 47; type: organism-based; conditions: in vivo, 336 h
[29] = Toxicity in SCID mouse xenografted with human PANC1 cells assessed as effect on creatinine level at 1.16 mg/kg, ip dosed 3 times per week and measured every 2 weeks up to day 14 to day 47; type: organism-based; conditions: in vivo, 336 h
[30] = Toxicity in SCID mouse xenografted with human PANC1 cells assessed as effect on cholesterol level at 1.16 mg/kg, ip dosed 3 times per week and measured every 2 weeks up to day 14 to day 47; type: organism-based; conditions: in vivo, 336 h
[31] = Toxicity in SCID mouse xenografted with human PANC1 cells assessed as effect on CK level at 1.16 mg/kg, ip dosed 3 times per week and measured every 2 weeks up to day 14 to day 47; type: organism-based; conditions: in vivo, 336 h
[32] = Toxicity in SCID mouse xenografted with human PANC1 cells assessed as effect on ALP level at 1.16 mg/kg, ip dosed 3 times per week and measured every 2 weeks up to day 14 to day 47; type: organism-based; conditions: in vivo, 336 h
[33] = Toxicity in SCID mouse xenografted with human PANC1 cells assessed as effect on GLU level at 1.16 mg/kg, ip dosed 3 times per week and measured every 2 weeks up to day 14 to day 47; type: organism-based; conditions: in vivo, 336 h
[34] = Toxicity in SCID mouse xenografted with human PANC1 cells assessed as effect on CA level at 1.16 mg/kg, ip dosed 3 times per week and measured every 2 weeks up to day 14 to day 47; type: organism-based; conditions: in vivo, 336 h
[35] = Toxicity in SCID mouse xenografted with human PANC1 cells assessed as effect on RBC level at 1.16 mg/kg, ip dosed 3 times per week and measured every 2 weeks up to day 14 to day 47; type: organism-based; conditions: in vivo, 336 h
[36] = Toxicity in SCID mouse xenografted with human PANC1 cells assessed as effect on WBC level at 1.16 mg/kg, ip dosed 3 times per week and measured every 2 weeks up to day 14 to day 47; type: organism-based; conditions: in vivo, 336 h
[37] = Toxicity in SCID mouse xenografted with human PANC1 cells assessed as effect on NE level at 1.16 mg/kg, ip dosed 3 times per week and measured every 2 weeks up to day 14 to day 47; type: organism-based; conditions: in vivo, 336 h
[38] = Toxicity in SCID mouse xenografted with human PANC1 cells assessed as effect on LY level at 1.16 mg/kg, ip dosed 3 times per week and measured every 2 weeks up to day 14 to day 47; type: organism-based; conditions: in vivo, 336 h
[39] = Toxicity in SCID mouse xenografted with human PANC1 cells assessed as effect on PLT level at 1.16 mg/kg, ip dosed 3 times per week and measured every 2 weeks up to day 14 to day 47; type: organism-based; conditions: in vivo, 336 h

CCCCCCS[C@H]1[C@@H](C(=O)O)[C@H](c2ccc(Br)cc2)N(S(=O)(=O)c2ccc(C)cc2)[C@@H]1CCC
active: inhibition [4] | inhibition [5] | inhibition [8] | inhibition [10]
> 100 µM: IC50 [3]
inactive: inhibition [6] | inhibition [7]
2.1 µM: IC50 [2]
1.36 µM: Ki [9]
> 50 µM: IC50 [1]

Cc1ccccc1S(=O)(=O)N1[C@@H](c2ccc(Cl)cc2)C(C(=O)N[C@@H](Cc2ccccc2)C(N)=O)=C[C@H]1C(C)(C)C
4.89 to 6.1 µM: GI50 [11]
0.0173 mL/min: CL/F [23]
1 to 7.7 µM: IC50 [1]
active: inhibition [12] Dose-dependent effect | inhibition [13] | Activity [18] Dose-dependent effect | Activity [19] Dose-dependent effect | Activity [20] Dose-dependent effect | TGI [21] | TGI [22] | TGI [24]
inactive: inhibition [14] | inhibition [15] | inhibition [16] | inhibition [17]
Non-Toxic: Activity [25] | Activity [26] | Activity [27] | Activity [28] | Activity [29] | Activity [30] | Activity [31] | Activity [32] | Activity [33] | Activity [34] | Activity [35] | Activity [36] | Activity [37] | Activity [38] | Activity [39]
